{
  "source": "patent US8299070B2",
  "about": "“Indole compounds and pharmaceutical use thereof” (Japan Tobacco Inc., priority 2009, dated 2012)",
  "data": [
    {"target": "T1, hITK enzyme (FLAG-tagged full-length hITK) (Homo sapiens, UniProt Q08881)", "T1 construct": "strongly expressing FLAG-tagged full-length hITK in Sf9 cells; FLAG; made in house; host or cells: Sf9 insect cells (ITK); Escherichia coli (GST-SLP76 substrate)", "T1 sequence (Q08881 1-620)": "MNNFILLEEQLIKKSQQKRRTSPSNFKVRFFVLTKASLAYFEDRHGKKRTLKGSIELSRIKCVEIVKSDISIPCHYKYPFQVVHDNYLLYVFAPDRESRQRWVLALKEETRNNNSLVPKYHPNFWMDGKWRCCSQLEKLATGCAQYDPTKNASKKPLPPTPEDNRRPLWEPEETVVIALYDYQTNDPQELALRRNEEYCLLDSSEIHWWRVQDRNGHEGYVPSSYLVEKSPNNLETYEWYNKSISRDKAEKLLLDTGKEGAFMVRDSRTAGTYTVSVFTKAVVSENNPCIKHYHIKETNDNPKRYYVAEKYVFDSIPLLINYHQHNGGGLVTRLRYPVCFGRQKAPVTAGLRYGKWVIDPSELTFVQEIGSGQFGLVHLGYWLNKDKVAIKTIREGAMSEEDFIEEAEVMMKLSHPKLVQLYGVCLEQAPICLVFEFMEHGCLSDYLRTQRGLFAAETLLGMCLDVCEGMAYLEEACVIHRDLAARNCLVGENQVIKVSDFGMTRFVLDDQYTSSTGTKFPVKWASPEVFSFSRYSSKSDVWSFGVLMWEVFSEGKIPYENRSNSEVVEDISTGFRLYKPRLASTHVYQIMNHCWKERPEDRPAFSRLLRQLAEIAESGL", "assay": "ITK inhibitory activity (HTRF kinase assay, biotinylated GST-SLP76 substrate)", "format": "biochemical", "details": "IC50 calculated from the 2 test compound concentrations sandwiching 50% ITK inhibitory rate", "outline": "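Sf9-expressed hITK (50 ng/mL enzyme solution) reacted 10 min at RT in MOPS pH 7.0, 10 mmol/L MgCl2, 1 mmol/L DTT with E. coli SLP76 aa95–175 substrate; substrate solution held 100 µmol/L ATP (6 µmol/L for selected compounds). HTRF 665/620 ratio, blank-corrected; IC50 interpolated between two concentrations bracketing 50% inhibition.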", "units": {"IC50": "nM"}, "values": [
      {"compound": "CC(C)OCCNC(=O)c1ccc2[nH]c(-c3n[nH]c4c3CCC(C)(C)C4)cc2c1", "note": "[Example 307]", "IC50": 61},
      {"compound": "CCCOCCNC(=O)c1ccc2[nH]c(-c3n[nH]c4c3CCC(C)(C)C4)cc2c1", "note": "[Example 308]", "IC50": 49},
      {"compound": "CC1(C)CCc2c(-c3cc4cc(C(=O)NCCOc5ccccc5)ccc4[nH]3)n[nH]c2C1", "note": "[Example 309]", "IC50": 102},
      {"compound": "COCCNC(=O)c1ccc2[nH]c(-c3n[nH]c4c3CCC(C)(C)C4)cc2c1", "note": "[Example 310]", "IC50": 47},
      {"compound": "COC(=O)CN(C)C(=O)c1ccc2[nH]c(-c3n[nH]c4c3CCC(C)(C)C4)cc2c1", "note": "[Example 311]", "IC50": 32},
      {"compound": "CN(CC(=O)O)C(=O)c1ccc2[nH]c(-c3n[nH]c4c3CCC(C)(C)C4)cc2c1", "note": "[Example 312]", "IC50": 27},
      {"compound": "COCCN(C)C(=O)c1ccc2[nH]c(-c3n[nH]c4c3CCC(C)(C)C4)cc2c1", "note": "[Example 313]", "IC50": 47},
      {"compound": "CN(Cc1ccccc1)C(=O)c1ccc2[nH]c(-c3n[nH]c4c3CCC(C)(C)C4)cc2c1", "note": "[Example 314]", "IC50": 143},
      {"compound": "CC1(C)CCc2c(-c3cc4cc(C(=O)NCc5ccccc5)ccc4[nH]3)n[nH]c2C1", "note": "[Example 315]", "IC50": 60},
      {"compound": "CC1(C)CCc2c(-c3cc4cc(C(=O)NCc5nccs5)ccc4[nH]3)n[nH]c2C1", "note": "[Example 316]", "IC50": 47},
      {"compound": "CC1(C)CCc2c(-c3cc4cc(C(=O)NCc5nnn[nH]5)ccc4[nH]3)n[nH]c2C1", "note": "[Example 317]", "IC50": 21},
      {"compound": "CC1(C)CCc2c(-c3cc4cc(C(=O)NCc5ccoc5)ccc4[nH]3)n[nH]c2C1", "note": "[Example 318]", "IC50": 45},
      {"compound": "Cn1cccc1CNC(=O)c1ccc2[nH]c(-c3n[nH]c4c3CCC(C)(C)C4)cc2c1", "note": "[Example 319]", "IC50": 46},
      {"compound": "CC1(C)CCc2c(-c3cc4cc(C(=O)NC(C)(C)CO)ccc4[nH]3)n[nH]c2C1", "note": "[Example 320]", "IC50": 49},
      {"compound": "CON(C)C(=O)c1ccc2[nH]c(-c3n[nH]c4c3CCC(C)(C)C4)cc2c1", "note": "[Example 321]", "IC50": 48},
      {"compound": "CC1(C)CCc2c(-c3cc4cc(C(=O)NCCN5CCOCC5)ccc4[nH]3)n[nH]c2C1", "note": "[Example 322]", "IC50": 41},
      {"compound": "CN(C)CCNC(=O)c1ccc2[nH]c(-c3n[nH]c4c3CCC(C)(C)C4)cc2c1", "note": "[Example 323]", "IC50": 34},
      {"compound": "CC1(C)CCc2c(-c3cc4cc(C(=O)Nc5nnc(O)s5)ccc4[nH]3)n[nH]c2C1", "note": "[Example 324]", "IC50": 140},
      {"compound": "COc1nnc(NC(=O)c2ccc3[nH]c(-c4n[nH]c5c4CCC(C)(C)C5)cc3c2)s1", "note": "[Example 325]", "IC50": 246},
      {"compound": "CC1(C)CCc2c(-c3cc4cc(C(=O)NC(C)(C)C(=O)O)ccc4[nH]3)n[nH]c2C1", "note": "[Example 326]", "IC50": 42},
      {"compound": "CC1(C)CCc2c(-c3cc4cc(C(=O)NC(C)(C)C(=O)OC(C)(C)C)ccc4[nH]3)n[nH]c2C1", "note": "[Example 327]", "IC50": 132},
      {"compound": "CC1(C)CCc2c(-c3cc4cc(C(=O)NC(CO)CO)ccc4[nH]3)n[nH]c2C1", "note": "[Example 328]", "IC50": 26},
      {"compound": "Cn1cncc1CNC(=O)c1ccc2[nH]c(-c3n[nH]c4c3CCC(C)(C)C4)cc2c1", "note": "[Example 329]", "IC50": 13},
      {"compound": "CCN(CC)C(=O)c1ccc2[nH]c(-c3n[nH]c4c3CCC(C)(C)C4)cc2c1", "note": "[Example 330]", "IC50": 80},
      {"compound": "CCN(C)C(=O)c1ccc2[nH]c(-c3n[nH]c4c3CCC(C)(C)C4)cc2c1", "note": "[Example 331]", "IC50": 60},
      {"compound": "CC1(C)CCc2c(-c3cc4cc(C(=O)N5CCCC5)ccc4[nH]3)n[nH]c2C1", "note": "[Example 332]", "IC50": 46},
      {"compound": "CC1(C)CCc2c(-c3cc4cc(C(=O)N5CCCCC5)ccc4[nH]3)n[nH]c2C1", "note": "[Example 333]", "IC50": 106},
      {"compound": "CC1(C)CCc2c(-c3cc4cc(C(=O)N5CCc6[nH]cnc6C5)ccc4[nH]3)n[nH]c2C1", "note": "[Example 334]", "IC50": 31},
      {"compound": "CC1(C)CCc2c(-c3cc4cc(C(=O)N5C[C@@H](O)[C@@H](O)C5)ccc4[nH]3)n[nH]c2C1", "note": "[Example 335]", "IC50": 26},
      {"compound": "CC1(C)CCc2c(-c3cc4cc(C(=O)N5CCN(C(=O)OC(C)(C)C)CC5)ccc4[nH]3)n[nH]c2C1", "note": "[Example 336]", "IC50": 78},
      {"compound": "CCN1CCN(C(=O)c2ccc3[nH]c(-c4n[nH]c5c4CCC(C)(C)C5)cc3c2)CC1", "note": "[Example 337]", "IC50": 49}
    ]}
  ]
}
